What was measured:
Hyg17 = target: T1, Hyg17 (Streptomyces leeuwenhoekii, UniProt A0A0F7VN41); test: NADH formation, absorbance at […] nm, initial rates […]-5 min; type: biochemical; settings: 100 mM CAPS, 50 mM NaCl, pH 10.5, 25 °C
T1 construct: cloned NdeI/XhoI in pTip-QC1, expressed in Rhodococcus jostii RHA1, Ni-NTA and size exclusion; primers encode N-terminus MTVAVVG and C-terminus SVPVAP before LE (XhoI)

BsIDH = target: T2, BsIDH (Bacillus subtilis, UniProt P26935); test: thin-layer chromatography of ketone product; type: biochemical; settings: 10 mM myo-inositol, 10 mM NAD+, 100 mM CAPS, 50 mM NaCl, pH 10.5
T2 construct: gene iolG; codon-optimised synthetic gene in pET28a, expressed in E. coli BL21 star (DE3), Ni-NTA and size exclusion
T2 sequence (P26935 whole entry): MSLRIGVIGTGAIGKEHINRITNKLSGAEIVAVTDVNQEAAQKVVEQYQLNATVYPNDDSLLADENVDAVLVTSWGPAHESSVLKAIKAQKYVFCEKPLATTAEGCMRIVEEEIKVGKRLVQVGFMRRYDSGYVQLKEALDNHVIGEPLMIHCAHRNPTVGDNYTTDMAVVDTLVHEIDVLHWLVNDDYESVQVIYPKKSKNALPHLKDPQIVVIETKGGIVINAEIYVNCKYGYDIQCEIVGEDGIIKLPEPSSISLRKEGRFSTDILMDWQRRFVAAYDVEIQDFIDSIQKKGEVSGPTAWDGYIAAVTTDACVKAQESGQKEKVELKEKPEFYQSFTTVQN

T1 sequence (A0A0F7VN41 whole entry): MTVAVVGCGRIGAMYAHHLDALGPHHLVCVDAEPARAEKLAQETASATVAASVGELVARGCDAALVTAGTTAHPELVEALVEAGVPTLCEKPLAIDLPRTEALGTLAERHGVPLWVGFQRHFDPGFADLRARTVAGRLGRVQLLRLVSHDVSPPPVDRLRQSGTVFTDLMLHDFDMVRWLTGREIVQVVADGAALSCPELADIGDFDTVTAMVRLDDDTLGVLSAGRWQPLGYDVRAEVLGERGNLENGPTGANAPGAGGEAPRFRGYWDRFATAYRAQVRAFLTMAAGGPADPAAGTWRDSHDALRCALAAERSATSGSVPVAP

| Km (Hyg17; 10 mM myo-inositol) | Km (Hyg17; 10 mM NAD+) | Structure (SMILES) | thin-layer chromatography of ketone product (BsIDH) |
| --- | --- | --- | --- |
| 4.2 ± 0.49 mM | – | NC(=O)c1ccc[n+]([C@@H]2O[C@H](COP(=O)(O)OP(=O)(O)OC[C@H]3O[C@@H](n4cnc5c(N)ncnc54)[C@H](O)[C@@H]3O)[C@@H](O)[C@H]2O)c1 [NAD^+] | – |
| – | 9 ± 1.1 mM | O[C@H]1[C@H](O)[C@@H](O)[C@H](O)[C@@H](O)[C@H]1O [myo-inositol] | We found that both enzymes generated a ketone product with identical retention factors |
| – | 20.3 ± 3.3 mM | O[C@H]1[C@H](O)[C@@H](O)[C@H](O)[C@@H](O)[C@@H]1O [scyllo-inositol] | – |

From paper PMC10949010, “A myo-inositol dehydrogenase involved in aminocyclitol biosynthesis of hygromycin A” (Beilstein Journal of Organic Chemistry, 2024)
